From patent US12723024B2 (priority 2021, dated 2026)
In brackets after ≈: the same amount, converted by molar mass. Read-outs that look alike come from different tables or passages of the source.

Assays:
[1] = Thermogravimetric analysis (TGA) weight loss; type: physicochemical; settings: large scale batch
[2] = Salt screening (slurry crystallization); type: physicochemical; design: key to Salt screening result: (+) shows that a crystalline salt was formed; (−) physical mixtures; settings: for Polymorph obtained in salt screening: XRPD; for Salt screening result: slurry 50° C. then 25° C.
Procedure: About 45 mg was added to a suitable solvent and different equivalents of acids were added under stirring at 50° C. for about 2 hours and then at 25° C. for at least 32 hours. Ethanol, acetone, and ACN were used as screening solvents. When no precipitation was obtained or only a few solids were obtained, the solutions were placed at 5° C. for crystallization.
(§1) Obtained suspensions were taken out and centrifuged. Solids obtained was analysed by XRPD. Salts with high or medium crystallinity were further characterized (see Table 5).

[3] = Thermogravimetric analysis (TGA) weight loss; type: physicochemical; settings: salt screening sample, at the temperature given (80-200° C.)
From the text: (§2) According to the salt screening results (see Table 4), totally 19 potential salt hits were identified. All the potential salt hits were further investigated by Differential Scanning Calorimetry (DSC), Thermogravimetric analysis (TGA), H-NMR, Ion chromatography (IC), Karl Fischer titration (KF), and Polarized Light Microscopy (PLM) to confirm their identity and evaluate their physicochemical properties as shown in Table 5 below.

[4] = Dynamic vapor sorption (DVS) test at 25° C.; type: physicochemical; settings: for Desorp. (%) / Sorp. (%) / Water absorbed from 40% RH to 95% RH / 1st Desorp. (%) / 2nd Sorp. (%) / 1st Sorp. (%) / 2nd Desorp. (%): 25° C.; for Desorp. (%) / Sorp. (%): cycle 40-0-95-0-40% RH; for XRPD after DVS test / Hygroscopicity: DVS at 25° C.; for Hygroscopicity: grade in words; for 1st Desorp. (%) / 2nd Sorp. (%) / 1st Sorp. (%) / 2nd Desorp. (%): cycle 40-95-0-95-40% RH
[5] = Hygroscopicity (water uptake) of salt hits; type: physicochemical; settings: salt screening sample; grade in words
From the text: as §2

Crystallinity by XRPD = type: physicochemical
Procedure: as §1, §2

[6] = type: physicochemical; settings: for Initial chemical purity (%): before storage; for chemical purity (%): solid state; for chemical purity (%) / Bulk stability: 1 week; for Bulk stability: stressed conditions: 25° C./92% RH
[7] = Solubility in pH buffers and bio-relevant media at 37° C.; type: physicochemical; settings: thermodynamic from solid
[8] = type: physicochemical
From the text: as §2

[9] = Solubility in water at 25° C.; settings: thermodynamic from solid
[10] = at the temperature printed in the same cell (100-170° C.)
[11] = listed as hydrochloride salt (polymorph A)
[12] = aqueous buffer, pH 4.5 (50 mM) acetate buffer, tested up to 2 mg/mL
[13] = aqueous buffer, pH 6.8 (50 mM) phosphate buffer, tested up to 2 mg/mL
[14] = pH 1.2 HCl buffer (0.1N HCl), simulated gastric fluid, pH 1.2 (0.1N HCl), tested up to 2 mg/mL
[15] = simulated gastric fluid, SGF, pH 2.0, tested up to 2 mg/mL
[16] = FaSSIF-V1, pH 6.5, tested up to 2 mg/mL
[17] = FeSSIF-V1, pH 5.0, tested up to 2 mg/mL
[18] = large scale batch, listed as free base (polymorph B)

COc1cc(C(F)(F)F)c(OC)cc1[C@@H]1CCCNC1.O=C(O)C(O)C(O)C(=O)O [L-tartrate salt (Polymorph B, anhydrate), L-tartaric acid salt of (S)-3-(2,5-dimethoxy-4-(trifluoromethyl)phenyl)piperidine]
Weight loss (%) at Temperature (° C.) [1, 10]: 0.4 at % | Weight loss (%) at Temperature (° C.) ([1]; at the temperature printed in the same cell (100-170° C.), listed as L-tartrate salt Polymorph B): about 0.4% | Polymorph obtained in salt screening ([2]; ACN): Polymorph B | Salt screening result ([2]; ACN): + | Polymorph obtained in salt screening ([2]; Acetone): Polymorph B | Salt screening result ([2]; Acetone): + | Polymorph obtained in salt screening ([2]; EtOH): Polymorph B | Salt screening result ([2]; EtOH): + | Weight loss (%) [3]: 0.9% | Desorp. (%) ([4]; 0% RH): 0.01% | Sorp. (%) ([4]; 0% RH): 0.04% | Desorp. (%) ([4]; 10% RH): 0.03% | Sorp. (%) ([4]; 10% RH): 0.06% | Desorp. (%) ([4]; 20% RH): 0.07% | Sorp. (%) ([4]; 20% RH): 0.08% | Water absorbed from 40% RH to 95% RH [4]: about 1.5% | Desorp. (%) ([4]; 30% RH): 0.10% | Sorp. (%) ([4]; 30% RH): 0.10% | Desorp. (%) ([4]; 40% RH): 0.13% | Sorp. (%) ([4]; 40% RH): 0.12% | Desorp. (%) ([4]; 50% RH): 0.19% | Sorp. (%) ([4]; 50% RH): 0.13% | Desorp. (%) ([4]; 60% RH): 0.29% | Sorp. (%) ([4]; 60% RH): 0.15% | Desorp. (%) ([4]; 70% RH): 0.48% | Sorp. (%) ([4]; 70% RH): 0.19% | Desorp. (%) ([4]; 80% RH): 0.67% | Sorp. (%) ([4]; 80% RH): 0.66% | Desorp. (%) ([4]; 90% RH): 1.18% | Sorp. (%) ([4]; 90% RH): 1.00% | Desorp. (%) ([4]; 95% RH): 1.60% | Sorp. (%) ([4]; 95% RH): 1.60% | XRPD after DVS test [4]: No form changes | Hygroscopicity [4]: slightly hygroscopic | Hygroscopicity [5]: None | Crystallinity (Crystallinity by XRPD; large scale batch): High | Crystallinity (Crystallinity by XRPD; large scale batch, listed as L-tartrate salt Polymorph B): high crystallinity | Crystallinity (Crystallinity by XRPD; salt screening sample): High

COc1cc(C(F)(F)F)c(OC)cc1[C@@H]1CCCNC1.Cl [HCl salt of (S)-3-(2,5-dimethoxy-4-(trifluoromethyl)phenyl)piperidine]
Weight loss (%) at Temperature (° C.) ([1]; at the temperature (100-170° C.), listed as hydrochloride salt (polymorph A)): about 0.3% | Weight loss (%) at Temperature (° C.) [1, 10]: 0.3 at % | Polymorph obtained in salt screening ([2]; ACN): Polymorph A | Salt screening result ([2]; ACN): + | Polymorph obtained in salt screening ([2]; Acetone): Polymorph A | Salt screening result ([2]; Acetone): + | Polymorph obtained in salt screening ([2]; EtOH): Polymorph A | Salt screening result ([2]; EtOH): + | Weight loss (%) [3]: 0.08% | Desorp. (%) ([4]; 0% RH): 0.01% | Sorp. (%) ([4]; 0% RH): 0.00% | Desorp. (%) ([4]; 10% RH): 0.01% | Sorp. (%) ([4]; 10% RH): 0.01% | Desorp. (%) ([4]; 20% RH): 0.012% | Sorp. (%) ([4]; 20% RH): 0.01% | Water absorbed from 40% RH to 95% RH [4]: about 0.17% | Desorp. (%) ([4]; 30% RH): 0.03% | Sorp. (%) ([4]; 30% RH): 0.01% | Desorp. (%) ([4]; 40% RH): 0.03% | Sorp. (%) ([4]; 40% RH): 0.01% | Desorp. (%) ([4]; 50% RH): 0.04% | Sorp. (%) ([4]; 50% RH): 0.01% | Desorp. (%) ([4]; 60% RH): 0.04% | Sorp. (%) ([4]; 60% RH): 0.02% | Desorp. (%) ([4]; 70% RH): 0.04% | Sorp. (%) ([4]; 70% RH): 0.03% | Desorp. (%) ([4]; 80% RH): 0.07% | Sorp. (%) ([4]; 80% RH): 0.05% | Desorp. (%) ([4]; 90% RH): 0.12% | Sorp. (%) ([4]; 90% RH): 0.12% | Desorp. (%) ([4]; 95% RH): 0.19% | Sorp. (%) ([4]; 95% RH): 0.19% | Hygroscopicity [4, 11]: non-hygroscopic | XRPD after DVS test [4, 11]: No form changes | Hygroscopicity [5]: None | Initial chemical purity (%) [6]: 99.8% | chemical purity (%) ([6]; 25° C./92% RH, open container): 99.8% | chemical purity (%) ([6]; 40° C./75% RH, open container): 99.8% | chemical purity (%) ([6]; 60° C., tight container): 99.8% | Bulk stability ([6]; 40° C./75% RH, 60° C.): chemically and physically stable | Crystallinity (Crystallinity by XRPD; large scale batch): High | Crystallinity (Crystallinity by XRPD; large scale batch, listed as hydrochloride salt (polymorph A)): high crystallinity | Crystallinity (Crystallinity by XRPD; salt screening sample): High

COc1cc(C(F)(F)F)c(OC)cc1[C@@H]1CCCNC1 [Free base (Polymorph B), (S)-3-(2,5-dimethoxy-4-(trifluoromethyl)phenyl)piperidine]
Weight loss (%) at Temperature (° C.) [1, 10]: 8.0 at % | Weight loss (%) at Temperature (° C.) ([1]; at the temperature printed in the same cell (100-170° C.), listed as free base (polymorph B)): about 8% | Salt screening result ([2]; ACN): Clear solution | Salt screening result ([2]; Acetone): Clear solution | Salt screening result ([2]; EtOH): Clear solution | Weight loss (%) [3]: 8.0% | 1st Desorp. (%) ([4]; 0% RH): 0.02% | 2nd Sorp. (%) ([4]; 0% RH): 0.02% | 1st Desorp. (%) ([4]; 10% RH): 0.20% | 2nd Sorp. (%) ([4]; 10% RH): 0.002% | 1st Desorp. (%) ([4]; 20% RH): 6.07% | 2nd Sorp. (%) ([4]; 20% RH): 0.007% | 1st Desorp. (%) ([4]; 30% RH): 6.29% | 2nd Sorp. (%) ([4]; 30% RH): 0.02% | 1st Desorp. (%) ([4]; 40% RH): 8.54% | 1st Sorp. (%) ([4]; 40% RH): 8.34% | 2nd Desorp. (%) ([4]; 40% RH): 8.23% | 2nd Sorp. (%) ([4]; 40% RH): 0.02% | 1st Desorp. (%) ([4]; 50% RH): 8.90% | 1st Sorp. (%) ([4]; 50% RH): 8.83% | 2nd Desorp. (%) ([4]; 50% RH): 8.76% | 2nd Sorp. (%) ([4]; 50% RH): 0.04% | 1st Desorp. (%) ([4]; 60% RH): 8.90% | 1st Sorp. (%) ([4]; 60% RH): 8.90% | 2nd Desorp. (%) ([4]; 60% RH): 8.79% | 2nd Sorp. (%) ([4]; 60% RH): 0.06% | 1st Desorp. (%) ([4]; 70% RH): 8.97% | 1st Sorp. (%) ([4]; 70% RH): 8.96% | 2nd Desorp. (%) ([4]; 70% RH): 8.87% | 2nd Sorp. (%) ([4]; 70% RH): 0.12% | 1st Desorp. (%) ([4]; 80% RH): 9.03% | 1st Sorp. (%) ([4]; 80% RH): 9.02% | 2nd Desorp. (%) ([4]; 80% RH): 8.95% | 2nd Sorp. (%) ([4]; 80% RH): 3.80% | 1st Desorp. (%) ([4]; 90% RH): 9.13% | 1st Sorp. (%) ([4]; 90% RH): 9.11% | 2nd Desorp. (%) ([4]; 90% RH): 9.06% | 2nd Sorp. (%) ([4]; 90% RH): 9.00% | 1st Desorp. (%) ([4]; 95% RH): 9.21% | 1st Sorp. (%) ([4]; 95% RH): 9.21% | 2nd Desorp. (%) ([4]; 95% RH): 9.14% | 2nd Sorp. (%) ([4]; 95% RH): 9.14% | Hygroscopicity [4]: undergoes dehydration when relative humidity is below 40% | Initial chemical purity (%) [6]: 98.7% | chemical purity (%) ([6]; 25° C./92% RH, open container): 98.7% | chemical purity (%) ([6]; 40° C./75% RH, open container): 98.8% | chemical purity (%) ([6]; 60° C., tight container): 98.5% | Bulk stability ([6]; 40° C./75% RH, 60° C.): chemically stable in these conditions, but physically unstable at 60 °C | solubility at 2 h [7, 12]: > 2000 µg/mL | solubility at 24 h [7, 12]: > 2000 µg/mL | solubility at 2 h [7, 13]: 1540 µg/mL (≈ 5.32 mM) | solubility at 24 h [7, 13]: 1580 µg/mL (≈ 5.46 mM) | solubility at 2 h [7, 14]: > 2000 µg/mL | solubility at 24 h [7, 14]: > 2000 µg/mL | solubility at 2 h [7, 15]: > 2000 µg/mL | solubility at 24 h [7, 15]: > 2000 µg/mL | solubility at 2 h [7, 16]: > 2000 µg/mL | solubility at 24 h [7, 16]: > 2000 µg/mL | solubility at 2 h [7, 17]: > 2000 µg/mL | solubility at 24 h [7, 17]: > 2000 µg/mL | solubility at 2 h ([7]; Water, tested up to 2 mg/mL): 110 µg/mL (≈ 0.38 mM) | solubility at 24 h ([7]; Water, tested up to 2 mg/mL): 140 µg/mL (≈ 0.484 mM) | Water content (% w/w) ([8]; large scale batch): 8.0% w/w | Water content (% w/w) [8, 18]: about 8 % w/w | Water content (% w/w) ([8]; salt screening sample): 8% w/w | solubility at 2 h [9]: 110 µg/mL (≈ 0.38 mM) | solubility at 24 h [9]: 140 µg/mL (≈ 0.484 mM) | Crystallinity (Crystallinity by XRPD; large scale batch): High | Crystallinity (Crystallinity by XRPD; [18]): high crystallinity | Crystallinity (Crystallinity by XRPD; salt screening sample): High
